# Source: ChEMBL document CHEMBL3045709, “Increasing resistance against Phytophthora citrophthora in tangelo Nova fruits by modulating polymethoxyflavones levels” (J Agric Food Chem, 2002)
# Calls of active or inactive are those of the source. The calls are words filed in the database; no cut-off is given here.
# Tests used:
# [1] = tested on: Citrus; experiment: Induction of resistance against Phytophthora citrophthora in Citrus (tangelo Nova) fruits assessed as increase of polymethoxyflavones levels at 20 to 250 ppm up to 160 days; type: functional
# [2] = tested on: Citrus; experiment: Induction of resistance against Phytophthora citrophthora in Citrus (tangelo Nova) fruits assessed as increase of polymethoxyflavones levels at 20 to 250 ppm after 7 days; type: functional
# [3] = tested on: Phytophthora citrophthora; experiment: Antifungal activity against Phytophthora citrophthora assessed as inhibition of radical growth at 0.1 to 1 g/L up to 200 hr; type: functional, organism-based
# [4] = tested on: Phytophthora citrophthora; experiment: Antifungal activity against Phytophthora citrophthora after 100 hr; type: functional, organism-based
# [5] = tested on: Phytophthora citrophthora; experiment: Antifungal activity against Phytophthora citrophthora in tangelo Nova fruits assessed as inhibition of fungal growth at 100 ppm after 3 to 5 days; type: functional; conditions: read-out: GI
# [6] = tested on: Phytophthora citrophthora; experiment: Antifungal activity against Phytophthora citrophthora assessed as inhibition of radical growth at 0.05 to 0.4 g/L up to 200 hr; type: functional, organism-based
# [7] = tested on: Phytophthora citrophthora; experiment: Antifungal activity against Phytophthora citrophthora assessed as inhibition of radical growth at 0.2 to 0.6 g/L up to 200 hr; type: functional, organism-based
# [8] = tested on: Penicillium digitatum; experiment: Antifungal activity against Penicillium digitatum; type: functional, organism-based
Compound,Activity [1],Activity [2] [%],growth inhibition (GI) [3],IC50 [4] [µM],inhibition of growth at 100 ppm [5] [%],growth inhibition (GI) [6],growth inhibition (GI) [7],IC50 [8] [µM]
"COc1ccc(-c2oc3c(OC)c(OC)c(OC)c(OC)c3c(=O)c2OC)cc1OC [3,5,6,7,8,3',4'-HEPTAMETHOXYFLAVONE]",43%,29,Active,1040,,,,
c1ccc(CNc2ncnc3[nH]cnc23)cc1 [6-BENZYLAMINOPURINE],,,,,60,,,
COc1ccc(-c2cc(=O)c3c(OC)c(OC)c(OC)c(OC)c3o2)cc1OC [NOBILETIN],Active,20,,590,,Active,,
COc1ccc(-c2cc(=O)c3c(OC)c(OC)c(OC)cc3o2)cc1OC [SINENSETIN],Active,20,,910,,,Active,
COc1ccc(-c2cc(=O)c3c(OC)c(OC)c(OC)c(OC)c3o2)cc1 [TANGERETIN],Active,12,Active,1720,,,,6450
